According to patent US20220089575A1, “FARNESOID X RECEPTOR AGONISTS AND USES THEREOF” (Metacrine, Inc., priority 2017, published 2022):

Biological target: T1, hFXR (Homo sapiens, UniProt Q96RI1)
T1 construct: expressed in transfected cells; host or cells: CV-1 cells
T1 sequence (Q96RI1 1-486): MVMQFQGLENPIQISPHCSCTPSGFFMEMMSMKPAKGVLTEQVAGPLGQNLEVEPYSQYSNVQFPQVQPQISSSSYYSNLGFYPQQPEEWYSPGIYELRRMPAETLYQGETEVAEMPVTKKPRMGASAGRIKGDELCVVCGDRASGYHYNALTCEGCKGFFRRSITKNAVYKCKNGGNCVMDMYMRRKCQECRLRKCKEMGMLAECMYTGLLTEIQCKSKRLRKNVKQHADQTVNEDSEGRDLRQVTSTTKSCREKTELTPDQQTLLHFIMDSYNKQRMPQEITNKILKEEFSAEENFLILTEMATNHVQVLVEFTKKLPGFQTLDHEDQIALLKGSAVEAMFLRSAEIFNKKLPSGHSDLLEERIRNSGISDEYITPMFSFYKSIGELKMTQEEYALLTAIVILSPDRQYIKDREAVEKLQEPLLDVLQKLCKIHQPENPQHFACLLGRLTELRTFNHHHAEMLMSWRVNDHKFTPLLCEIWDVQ
T1 sequence (P19793 1-462 partner): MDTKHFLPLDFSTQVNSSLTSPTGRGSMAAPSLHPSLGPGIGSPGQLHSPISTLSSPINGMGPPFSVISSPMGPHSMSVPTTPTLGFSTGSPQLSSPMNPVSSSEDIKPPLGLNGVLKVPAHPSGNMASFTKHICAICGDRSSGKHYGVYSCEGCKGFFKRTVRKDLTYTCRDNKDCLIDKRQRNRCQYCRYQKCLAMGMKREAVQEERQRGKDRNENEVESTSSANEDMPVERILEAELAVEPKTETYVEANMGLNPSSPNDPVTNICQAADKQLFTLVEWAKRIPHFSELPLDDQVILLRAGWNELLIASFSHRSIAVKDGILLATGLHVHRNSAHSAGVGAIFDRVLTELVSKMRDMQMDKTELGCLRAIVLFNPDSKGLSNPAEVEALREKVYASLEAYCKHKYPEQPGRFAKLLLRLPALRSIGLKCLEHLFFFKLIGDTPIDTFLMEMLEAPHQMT
Assay: In Vitro FXR Assay (TK): TK-ECRE-luc reporter in transfected CV-1 cells
Assay type: cell-based
Settings: 18 hrs, luminescence, maximum efficacy of <25% of the Fexarmine control classified as '+'
In short: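 Cells are seeded in charcoal double-stripped FBS medium, transfected overnight with FXR/RXR expression and ECRE-driven luciferase reporter plasmids, then treated with serially diluted compounds for 18 h. Lysates are measured for luciferase light output.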

| Compound | EC50 [nM] |
| --- | --- |
| CCC1CN(C(=O)O[C@H]2CC[C@H](C(=O)N(C[C@H]3CC[C@H](c4ccc(OC)c(C)n4)CC3)c3cc(-c4cnn(C(C)C)c4)ccn3)CC2)C1 [Compound 7.54, trans-4-((4-(1-Isopropyl-1H-pyrazol-4-yl)pyridin-2-yl)((trans-4-(5-methoxy-6-methylpyridin-2-yl)cyclohexyl)methyl)carbamoyl)cyclohexyl 3-ethylazetidine-1-carboxylate] | ≤ 250 |
| COc1ccc([C@H]2CC[C@H](CN(c3cc(-c4cnn(C(C)C)c4)ccn3)C(=O)[C@H]3CC[C@H](OC(=O)N4CC(OC)C4)CC3)CC2)nc1C [Compound 7.55, trans-4-((4-(1-Isopropyl-1H-pyrazol-4-yl)pyridin-2-yl)((trans-4-(5-methoxy-6-methylpyridin-2-yl)cyclohexyl)methyl)carbamoyl)cyclohexyl 3-methoxyazetidine-1-carboxylate] | ≤ 250 |
| COc1ccc([C@H]2CC[C@H](CN(c3cc(-c4cnn(C(C)C)c4)ccn3)C(=O)[C@H]3CC[C@H](OC(=O)N4CC(OC(C)C)C4)CC3)CC2)nc1C [Compound 7.56, trans-4-((4-(1-Isopropyl-1H-pyrazol-4-yl)pyridin-2-yl)((trans-4-(5-methoxy-6-methylpyridin-2-yl)cyclohexyl)methyl)carbamoyl)cyclohexyl 3-isopropoxyazetidine-1-carboxylate] | ≤ 250 |
| COc1ccc([C@H]2CC[C@H](CN(c3cc(-c4cnn(C(C)C)c4)ccn3)C(=O)[C@H]3CC[C@H](OC(=O)N4CC(C(C)C)C4)CC3)CC2)nc1C [Compound 7.57, trans-4-((4-(1-Isopropyl-1H-pyrazol-4-yl)pyridin-2-yl)((trans-4-(5-methoxy-6-methylpyridin-2-yl)cyclohexyl)methyl)carbamoyl)cyclohexyl 3-isopropylazetidine-1-carboxylate] | ≤ 250 |
| COc1ccc([C@H]2CC[C@H](CN(c3cc(-c4cnn(C(C)C)c4)ccn3)C(=O)[C@H]3CC[C@H](OC(=O)N4CC(N(C)C)C4)CC3)CC2)nc1C [Compound 7.58, trans-4-((4-(1-Isopropyl-1H-pyrazol-4-yl)pyridin-2-yl)((trans-4-(5-methoxy-6-methylpyridin-2-yl)cyclohexyl)methyl)carbamoyl)cyclohexyl 3-(dimethylamino)azetidine-1-carboxylate] | ≤ 250 |
| COc1ccc([C@H]2CC[C@H](CN(c3cc(-c4cnn(C(C)C)c4)ccn3)C(=O)[C@H]3CC[C@H](OC(=O)N4CC(CO)C4)CC3)CC2)nc1C [Compound 7.59, trans-4-((4-(1-Isopropyl-1H-pyrazol-4-yl)pyridin-2-yl)((trans-4-(5-methoxy-6-methylpyridin-2-yl)cyclohexyl)methyl)carbamoyl)cyclohexyl 3-(hydroxymethyl)azetidine-1-carboxylate] | ≤ 250 |
| CCC1CN(C(=O)O[C@H]2CC[C@H](C(=O)N(C[C@H]3CC[C@H](c4ccc(OC)c(C)n4)CC3)c3cccc(-c4cnn(C(C)C)c4)c3)CC2)C1 [Compound 7.60, trans-4-((3-(1-Isopropyl-1H-pyrazol-4-yl)phenyl)((trans-4-(5-methoxy-6-methylpyridin-2-yl)cyclohexyl)methyl)carbamoyl)cyclohexyl 3-ethylazetidine-1-carboxylate] | ≤ 250 |
| COc1ccc([C@H]2CC[C@H](CN(c3cccc(-c4cnn(C(C)C)c4)c3)C(=O)[C@H]3CC[C@H](OC(=O)N4CC(CO)C4)CC3)CC2)nc1C [Compound 7.61, trans-4-((3-(1-Isopropyl-1H-pyrazol-4-yl)phenyl)((trans-4-(5-methoxy-6-methylpyridin-2-yl)cyclohexyl)methyl)carbamoyl)cyclohexyl 3-(hydroxymethyl)azetidine-1-carboxylate] | ≤ 250 |
| COc1ccc([C@H]2CC[C@H](CN(c3cccc(-c4coc(C5CC5)n4)c3)C(=O)[C@H]3CC[C@H](OC(=O)N4CC(O)C4)CC3)CC2)cc1C [Compound 7.62, trans-4-((3-(2-Cyclopropyloxazol-4-yl)phenyl)((trans-4-(4-methoxy-3-methylphenyl)cyclohexyl)methyl)carbamoyl)cyclohexyl 3-hydroxyazetidine-1-carboxylate] | ≤ 250 |
